This note sets out measurements from US20230051589A1, “COMPOUNDS AND COMPOSITIONS FOR TREATING CONDITIONS ASSOCIATED WITH NLRP ACTIVITY” (Novartis AG, priority 2018, published 2023).

For the first test, the system named is IL-1β production in PMA-differentiated THP-1 cells. Description: IL-1β production in PMA-differentiated THP-1 cells stimulated with gramicidin (hTHP-1 assay, 2% fetal bovine serum; Procedures 1-3). In kind it is cell-based, human. As to conditions: Homo sapiens, THP-1, hTHP-1 assay containing 2% fetal bovine serum, Table B2, class symbols; read-out: IC50. The method, boiled down: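 PMA-primed THP-1 cells (20 ng/ml PMA, 16-18 h) in RPMI with 2% FBS were pre-incubated with compounds for 1 h, from 100 μM downward in 3-fold steps (0.37% DMSO final), then stimulated with 5 μM gramicidin for 2 h. IL-1β in the supernatant was quantified by HTRF.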
Broadly, the IC50 is the point on the concentration scale where inhibition reaches its midpoint. As for `NS(=O)(=NC(=O)Nc1c2c(cc3c1CCC3)CCC2)c1cnn2c1OC[C@H](O)C2` (stereo partly drawn) [Example 441, (6R)-N′-((1,2,3,5,6,7-hexahydro-s-indacen-4-yl)carbamoyl)-6-hydroxy-6,7-dihydro-5H-pyrazolo[5,1-b][1,3]oxazine-3-sulfonimidamide], the IC50 lay within 0.2 to 1 µM.

Regarding `CC(C)n1nc(S(N)(=O)=NC(=O)Nc2c3c(c(C#N)c4c2CCC4)CCC3)cc1CO` (stereo not shown) [Example 442, N′-((8-cyano-1,2,3,5,6,7-hexahydro-s-indacen-4-yl)carbamoyl)-5-(hydroxymethyl)-1-isopropyl-1H-pyrazole-3-sulfonimidamide], the half-maximal inhibitory concentration (IC50) was 0.2 to 1 µM. Same read-out and setting: under `NS(=O)(=NC(=O)Nc1c2c(cc3c1CCC3)CCC2)c1ccc(C2CCN2)cc1` (stereo not shown) [Example 444, 4-(Azetidin-2-yl)-N′-((1,2,3,5,6,7-hexahydro-s-indacen-4-yl)carbamoyl)benzenesulfonimidamide] stands 1 to 5 µM; under `CN[C@H]1COc2c(S(N)(=O)=NC(=O)Nc3c4c(cc5c3CCC5)CCC4)cnn2C1` (stereo partly drawn) [Example 445, (6R)-N′-((1,2,3,5,6,7-hexahydro-s-indacen-4-yl)carbamoyl)-6-(methylamino)-6,7-dihydro-5H-pyrazolo[5,1-b][3]oxazine-3-sulfonimidamide], 0.04 to 0.2 µM; under `CN(C)Cc1ccc(S(N)(=O)=NC(=O)Nc2c3c(cc4c2CC4)CCC3)cc1` (stereo not shown) [Example 446, 4-((Dimethylamino)methyl)-N′-(2,4,5,6-tetrahydro-1H-cyclobuta[f]inden-3-ylcarbamoyl)benzenesulfonimidamide], 0.2 to 1 µM. Same read-out and setting: under `CNCc1ccc(S(N)(=O)=NC(=O)Nc2c3c(cc4c2CC4)CCC3)cc1` (stereo not shown) [Example 448, 4-((Methylamino)methyl)-N′-((2,4,5,6-tetrahydro-1H-cyclobuta[f]inden-3-yl)carbamoyl)benzenesulfonimidamide] stands 1 to 5 µM. As to `CN(C)Cc1ccc(S(N)(=O)=NC(=O)Nc2c3c(cc4c2CC4)CC3)cc1` (stereo not shown) [Example 449, 4-((Dimethylamino)methyl)-N′-(tricyclo[6.2.0.03,6]deca-1,3(6),7-trien-2-ylcarbamoyl)benzenesulfonimidamide], the concentration for half-maximal inhibition (IC50) lay within 1 to 5 µM. With `CC(C)(O)c1ncc(S(N)(=O)=NC(=O)Nc2c3c(c(Cl)c4c2CCC4)CCC3)s1` (stereo not shown) [Example 450, N′-((8-chloro-1,2,3,5,6,7-hexahydro-s-indacen-4-yl)carbamoyl)-2-(2-hydroxypropan-2-yl)thiazole-5-sulfonimidamide], the IC50 was 0.04 to 0.2 µM. The same measure, in the same setting: under `CNC(C)(C)c1ccc(S(N)(=O)=NC(=O)Nc2c3c(cc4c2CCC4)CCC3)c(F)c1` (stereo not shown) [Example 451, 2-Fluoro-N′-(1,2,3,5,6,7-hexahydros-indacen-4-ylcarbamoyl)-4-(2-(methylamino)propan-2-yl)benzenesulfonimidamideonimidamide] stands 0.2 to 1 µM; under `C=CCc1c2c(c(NC(=O)N=S(N)(=O)c3cc(C(C)(C)O)n(-c4ccccc4)n3)c3c1CCC3)CCC2` (stereo not shown) [Example 458, N′-((8-allyl-1,2,3,5,6,7-hexahydro-s-indacen-4-yl)carbamoyl)-5-(2-hydroxypropan-2-yl)-1-phenyl-1H-pyrazole-3-sulfonimidamide], 1 to 5 µM. Regarding `C/C=C/c1c2c(c(NC(=O)N=S(N)(=O)c3cc(C(C)(C)O)n(-c4ccccc4)n3)c3c1CCC3)CCC2` (stereo not shown) [Example 459, (E)-5-(2-hydroxypropan-2-yl)-1-phenyl-N′-((8-(prop-1-en-1-yl)-1,2,3,5,6,7-hexahydro-s-indacen-4-yl)carbamoyl)-1H-pyrazole-3-sulfonimidamide], the IC50 was in the range of 1 to 5 µM. Still for that read-out and setting: under `NS(=O)(=NC(=O)Nc1c2c(cc3c1CCC3)CCC2)c1cnc(C(O)(CO)CO)s1` (stereo not shown) [Example 460, N′-((1,2,3,5,6,7-hexahydro-s-indacen-4-yl)carbamoyl)-2-(1,2,3-trihydroxypropan-2-yl) thiazole-5-sulfonimidamide] stands 0.04 to 0.2 µM. The same measure, in the same setting: under `CC(C)(O)c1cncc(S(N)(=O)=NC(=O)Nc2c3c(c(C#N)c4c2CCC4)CCC3)c1` (stereo not shown) [Example 461, N′-((8-cyano-1,2,3,5,6,7-hexahydro-s-indacen-4-yl)carbamoyl)-5-(2-hydroxypropan-2-yl)pyridine-3-sulfomidamide] stands 0.2 to 1 µM; under `NS(=O)(=NC(=O)Nc1c2c(cc3c1CCC3)CCC2)c1ccc(CN2CCC2)cc1F` (stereo not shown) [Example 462, 4-(azetidin-1-ylmethyl)-2-fluoro-N′-((1,2,3,5,6,7-hexahydro-s-indacen-4-yl)carbamoyl)benzenesulfonimidamide], 1 to 5 µM. On the same count and under the same terms, next, `NS(=O)(=NC(=O)Nc1c2c(cc3c1CC3)CCC2)c1ccc(CN2CCC2)cc1F` (stereo not shown) [Example 463, 4-(azetidin-1-ylmethyl)-2-fluoro-N′-((2,4,5,6-tetrahydro-1H-cyclobuta[f]inden-3-yl)carbamoyl)benzenesulfonimidamide]: 1 to 5 µM; `CC(C)(O)c1ccc(S(N)(=O)=NC(=O)Nc2cc3c(c4c2CCC4)CCC3)cn1` (stereo not shown) [Example 464, N′-((1,2,3,6,7,8-hexahydro-as-indacen-4-yl)carbamoyl)-6-(2-hydroxypropan-2-yl)pyridine-3-sulfonimidamide]: 1 to 5 µM. Turning to `Cc1c(C2CC2)cc2c(c1NC(=O)N=S(N)(=O)c1cc(C(C)(C)O)cs1)CCC2` (stereo not shown) [Example 465, N′-((6-cyclopropyl-5-methyl-2,3-dihydro-1H-inden-4-yl)carbamoyl)-4-(2-hydroxypropan-2-yl)thiophene-2-sulfonimidamide], the IC50 lay within 0.04 to 0.2 µM. The same measure, in the same setting: next, `CC(C)(O)c1csc(S(N)(=O)=NC(=O)Nc2c3c(cc4c2C(=O)CC4)CCC3)c1` (stereo not shown) [Example 466, 4-(2-Hydroxypropan-2-yl)-N′-((3-oxo-1,2,3,5,6,7-hexahydro-s-indacen-4-yl)carbamoyl)thiophene-2-sulfonimidamide]: 0.2 to 1 µM; `CC(C)(O)c1csc(S(N)(=O)=NC(=O)Nc2c3c(cc4c2CC4)CCC3)c1` (stereo not shown) [Example 467, 4-(2-Hydroxypropan-2-yl)-N′-((2,4,5,6-tetrahydro-1H-cyclobuta[f]inden-3-yl)carbamoyl)thiophene-2-sulfonimidamide]: 0.04 to 0.2 µM; `Cc1c(C2CC2)cc2c(c1NC(=O)N=S(N)(=O)c1cnc(C(C)(C)O)s1)CCC2` (stereo not shown) [Example 468]: 0.04 to 0.2 µM. Regarding `CC(C)(O)c1ccc(S(N)(=O)=NC(=O)Nc2c3c(cc4c2C(=O)CC4)CCC3)cn1` (stereo not shown) [Example 469, 6-(2-Hydroxypropan-2-yl)-N′-((3-oxo-1,2,3,5,6,7-hexahydro-s-indacen-4-yl)carbamoyl)pyridine-3-sulfonimidamide], the IC50 is 1 to 5 µM. The same measure, in the same setting: under `CC(C)(O)c1ccc(S(N)(=O)=NC(=O)Nc2c3c(c(C#N)c4c2CCC4)CCC3)cn1` (stereo not shown) [Example 470, N′-((8-cyano-1,2,3,5,6,7-hexahydro-s-indacen-4-yl)carbamoyl)-6-(2-hydroxypropan-2-yl)pyridine-3-sulfonimidamide] stands 0.2 to 1 µM. As to `CN(C)C(c1ccc(S(N)(=O)=NC(=O)Nc2c3c(cc4c2CCC4)CCC3)cc1)C(F)F` (stereo not shown) [Example 474, 4-(1-(Dimethylamino)-2,2-difluoroethyl)-N-((1,2,3,5,6,7-hexahydro-s-indacen-4-yl)carbamoyl)benzenesulfonimidamide], the IC50 was in the range of 1 to 5 µM. Same read-out and setting: under `CC(C)(O)c1nc(CO)c(S(N)(=O)=NC(=O)Nc2c3c(cc4c2CCC4)CCC3)s1` (stereo not shown) [Example 475, N′-((1,2,3,5,6,7-hexahydro-s-indacen-4-yl)carbamoyl)-4-(hydroxymethyl)-2-(2-hydroxypropan-2-yl)thiazole-5-sulfonimidamide] stands 0.04 to 0.2 µM.

Still in this test, the particulars now being: hTHP-1 assay containing 2% fetal bovine serum, Table B2, class symbols; read-out: IC50.
Turning to `CC(O)(CO)c1cc(F)c(S(N)(=O)=NC(=O)Nc2c3c(c(C#N)c4c2CCC4)CCC3)s1` (stereo not shown) [Example 443, N′-((8-cyano-1,2,3,5,6,7-hexahydro-s-indacen-4-yl)carbamoyl)-5-(1,2-dihydroxypropan-2-yl)-3-fluorothiophene-2-sulfonimidamide], the IC50 is 0.04 to 0.2 µM. In the case of `NS(=O)(=NC(=O)Nc1c2c(cc3c1CCC3)CCC2)c1ccc(C2CCCN2)cc1` (stereo not shown) [Example 447, N′-((1,2,3,5,6,7-hexahydro-s-indacen-4-yl)carbamoyl)-4-(pyrrolidin-2-yl)benzenesulfonimidamide], the IC50 was 1 to 5 µM. Still for that read-out and setting: under `COCc1nc(C(C)(C)O)sc1S(N)(=O)=NC(=O)Nc1c2c(c(C#N)c3c1CCC3)CCC2` (stereo not shown) [Example 454, N′-((8-cyano-1,2,3,5,6,7-hexahydro-s-indacen-4-yl)carbamoyl)-2-(2-hydroxypropan-2-yl)-4-(methoxymethyl)thiazole-5-sulfonimidamide] stands 0.2 to 1 µM. The same measure, in the same setting: next, `CC(C)(O)c1cnc(S(N)(=O)=NC(=O)Nc2c3c(cc4c2CCC4=O)CCC3)s1` (stereo not shown) [Example 455, 5-(2-Hydroxypropan-2-yl)-N′-((1-oxo-1,2,3,5,6,7-hexahydro-s-indacen-4-yl)carbamoyl)thiazole-2-sulfonimidamide]: 1 to 5 µM; `CC(C)(O)c1ccnc(S(N)(=O)=NC(=O)Nc2c3c(c(C#N)c4c2CCC4)CCC3)c1` (stereo not shown) [Example 456, N′-((8-cyano-1,2,3,5,6,7-hexahydro-s-indacen-4-yl)carbamoyl)-4-(2-hydroxypropan-2-yl)pyridine-2-sulfonimidamide]: 0.2 to 1 µM.

With `COc1ccc(Cn2nc(S(N)(=O)=NC(=O)Nc3c4c(cc5c3CCC5)CCC4)cc2C(C)(C)O)cc1` (stereo not shown) [Example 457, N′-((1,2,3,5,6,7-hexahydro-s-indacen-4-yl)carbamoyl)-5-(2-hydroxypropan-2-yl)-1-(4-methoxybenzyl)-1H-pyrazole-3-sulfonimidamide], the half-maximal inhibitory concentration (IC50) was 0.2 to 1 µM. Same read-out and setting: next, `CC(C)(O)c1cc(S(N)(=O)=NC(=O)Nc2c3c(cc4c2CCC4)CCC3)sc1-c1ccccc1` (stereo not shown) [Example 477, N′-((1,2,3,5,6,7-hexahydro-s-indacen-4-yl)carbamoyl)-4-(2-hydroxypropan-2-yl)-5-phenylthiophene-2-sulfomidamide]: 0.2 to 1 µM.
